Test results from ChEMBL document CHEMBL3813622, “Anion inhibition profiles of α-, β- and γ-carbonic anhydrases from the pathogenic bacterium Vibrio cholerae” (Bioorg Med Chem, 2016).
Several values for one entry are separate records, joined by “and”; a condition that tells them apart may be missing. Equal values may be shown once.

Key:
[1] = Inhibition of Helicobacter pylori alpha carbonic anhydrase preincubated for 15 mins by stopped-flow CO2 hydrase assay
[2] = Inhibition of Vibrio cholerae alpha carbonic anhydrase preincubated for 15 mins by stopped-flow CO2 hydrase assay
[3] = Inhibition of Vibrio cholerae carbonic anhydrase beta preincubated for 15 mins by stopped-flow CO2 hydrase assay
Carbonic anhydrase 1 = Carbonic anhydrase 1 (Homo sapiens, UniProt P00915); experiment: Inhibition of human carbonic anhydrase 1 preincubated for 15 mins by stopped-flow CO2 hydrase assay
Sequence of Carbonic anhydrase 1 (P00915 whole entry): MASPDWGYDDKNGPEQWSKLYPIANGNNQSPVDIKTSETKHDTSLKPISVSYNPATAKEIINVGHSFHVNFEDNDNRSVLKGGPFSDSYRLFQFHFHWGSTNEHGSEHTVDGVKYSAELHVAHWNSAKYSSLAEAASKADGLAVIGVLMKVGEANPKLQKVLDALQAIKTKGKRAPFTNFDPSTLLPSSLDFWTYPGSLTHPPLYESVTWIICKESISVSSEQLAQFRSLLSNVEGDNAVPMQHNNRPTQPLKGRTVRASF

Row | SMILES | Ki [1] | Ki [2] | Ki [3] | Ki (Carbonic anhydrase 1)
1 | [N-]=[N+]=[N-] | 830 µM | 760 µM | 20500 µM | 
2 | O=[Te](=O)(O)O | 340 µM | 14500 µM | 2300 µM | 
3 | NS(N)(=O)=O [SULFAMIDE] | 73 µM | 8 µM | 54 µM | 
4 | F [FLUORIDE ION] | 4080 µM | 800 µM | 8700 µM | 
5 | O=S(=O)(O)F |  |  | 8900 µM | 
6 | O=[As](O)(O)c1ccccc1 [PHENYLARSONIC ACID] | 440 µM | 23 µM | 79 µM | 
7 | F[B-](F)(F)F | > 200000 µM | > 200000 µM | > 200000 µM | 
8 | O=[N+]([O-])O | 810 µM | 670 µM | 8400 µM | 
9 | S=C(S)S [CARBONOTRITHIOIC ACID] | 380 µM | 88 µM | 7000 µM | 
10 | NS(=O)(=O)O [SULFAMATE] | 80 µM | 31 µM | 86 µM | 
11 | CCN(CC)C(=S)S [DITIOCARB] | 5 µM | 43 µM | 730 µM | 
12 | N#CS [THIOCYANIC ACID] | 4100 µM | 820 µM | 9500 µM | 
13 | O=C(O)O [BICARBONATE] |  | 4640 µM and 5130 µM | 5900 µM and 6700 µM | 
14 | O=NO [NITROUS ACID] | 930 µM | 34100 µM | 9100 µM | 
15 | N#CO [CYANATE] | 600 µM | 75 µM | 7100 µM | 
16 | Br [BROMIDE] | 2410 µM | 28000 µM | 7400 µM | 
17 | Cl [HYDROCHLORIC ACID] | 2700 µM | 930 µM | 8100 µM | 
18 | O=S(O)O [SULFUROUS ACID] | 990 µM | 68 µM | > 200000 µM | 
19 | O=[Se](=O)(O)O [SELENIC ACID] | 720 µM | 60800 µM | 3400 µM | 
20 | S [HYDROGEN SULFIDE] |  | 74 µM | 21300 µM | 
21 | [O-][Cl+3]([O-])([O-])O [PERCHLORATE] | 10100 µM | > 200000 µM | > 200000 µM | 
22 | N#C[SeH] | 730 µM | 760 µM | 5300 µM | 8.5 µM
23 | O=S(=O)(O)OOS(=O)(=O)O | 920 µM | 84100 µM | 3400 µM | 
24 | OB(O)c1ccccc1 [PHENYLBORONIC ACID] | 97 µM | 7 µM | 85 µM | 
25 | O=S(=O)(O)O [SULFURIC ACID] | 820 µM | 850 µM |  | 
26 | O=S(=O)(O)NS(=O)(=O)O | 540 µM | 88200 µM | > 200000 µM | 
27 | I [IODIDE] | 6050 µM | 9730 µM | 9000 µM | 
28 | O=P(O)(O)OP(=O)(O)O [PYROPHOSPHORIC ACID] | 660 µM | 2960 µM |  | 
